For one data set, the system named is influenza virus. The following applies: previously reported; read-out: IC50, anti-influenza virus activity in vitro; cited from earlier work.
Another data set in a line: in vitro. The following applies: dog.
For data set [1], the system named is influenza virus A/ostrich/Denmark/725/96 (H5N2). In words: microbe, parasite or virus in culture. The following applies: for IC50: H5N2, MDCK. Format: cell-based.
The test system is the same in data set [2]. The format is cell-based.
For data set [3] the test system is unchanged. Format: cell-based. This is another data set of the same source.
The subject of data set [4] is HA protein of pandemic human influenza A/H1N1 virus. The format is cell-based.
Setting [5] is: 72 h, read-out: IC50 (compound concentration required to inhibit virus plaque production by 50%).
Where [6] appears, read: read-out: p[IC50] = −log[IC50] (converted).

We go through 12 compounds from paper PMC5578090, “Biological Evaluation of Uridine Derivatives of 2-Deoxy Sugars as Potential Antiviral Compounds against Influenza A Virus” (International Journal of Molecular Sciences, 2017).

Molecules are shown by their SMILES. Entries after “also recorded” stand apart in the source; their conditions may differ. Like-named read-outs stand apart in the source and are kept apart here. Where only a bound is given, the exact number is not on record here.

In the case of `CC1(C)O[C@@H]2[C@H](O1)[C@@H](CO[C@@H]1C[C@@H](OCc3ccccc3)[C@H](OCc3ccccc3)[C@@H](CO)O1)O[C@H]2n1ccc(=O)n(C(=O)c2ccccc2)c1=O` [IW7, reference compound], the IC50 was 63 µM in the data set with influenza virus and 63 ± 4.17 µM in data set [1] (setting [5]). For the same compound, the CC50 in the data set “in vitro” was 123 µM. In addition, in data set [1], the “SI (selectivity index, ratio of CC50 to IC50)” value is given as 1.95.

For `O=c1ccn([C@@H]2O[C@H](CO[C@@H]3C[C@@H](O)[C@H](O)[C@@H](CO)O3)[C@@H](O)[C@H]2O)c(=O)[nH]1` [Compound 9], the CC50 in “in vitro” amounted to 800 µM. The “SI (selectivity index, ratio of CC50 to IC50)” value in data set [1] was found to be 1.95. Further, the IC50 in data set [1] (setting [5]) is 410 ± 11.2 µM; in data set [1] (setting [6]), 407 µM. Also, the “Cytotoxicity (in words)” value in the data set on MDCK cells is “low”.

The compound `CC1(C)O[C@@H]2[C@H](O1)[C@@H](CO[C@@H]1C[C@@H](O)[C@H](O)[C@@H](CO)O1)O[C@H]2n1ccc(=O)n(Cc2ccccc2)c1=O` [Compound 8] returned a CC50 in the data set “in vitro” of 669 µM. The “SI (selectivity index, ratio of CC50 to IC50)” value in data set [1] came out at 1.93. Besides, the IC50 in data set [1] (setting [5]) was 346 ± 10.5 µM; in data set [1] (setting [6]), 347 µM. Further, in the data set with MDCK cells, the “Cytotoxicity (in words)” value is on record as “low”.

As to `CC(=O)O[C@H]1[C@H](C)O[C@H](OC[C@H]2O[C@@H](n3ccc(=O)[nH]c3=O)[C@@H]3OC(C)(C)O[C@@H]32)C[C@@H]1O[Si](C)(C)C(C)(C)C` [Compound 1], the CC50 in the data set “in vitro” is 193 µM. In addition, the “SI (selectivity index, ratio of CC50 to IC50)” value in data set [1] is 1.10. The IC50 in data set [1] (setting [5]) is 175 ± 8.22 µM; in data set [1] (setting [6]) it was 174 µM.

Regarding `CC1(C)O[C@@H]2[C@H](O1)[C@@H](CO[C@@H]1C[C@@H](OCc3ccccc3)[C@H](OCc3ccccc3)[C@@H](COCc3ccccc3)O1)O[C@H]2n1ccc(=O)[nH]c1=O` [Compound 3], in “in vitro”, the CC50 is 407 µM. Besides, the “SI (selectivity index, ratio of CC50 to IC50)” value in data set [1] is given as 4.07. The IC50 in data set [1] (setting [5]) is 100 ± 9.84 µM; in data set [1] (setting [6]), 100 µM. In data set [2], the “Reduction of virus-induced cytopathic effect (antiviral activity)” value (“Reduction” below) is on record as “significantly reduced the CPE”.

Regarding `CC1(C)O[C@@H]2[C@H](O1)[C@@H](CO[C@@H]1C[C@@H](OCc3ccccc3)[C@H](OCc3ccccc3)[C@@H](CO[Si](C)(C)C(C)(C)C)O1)O[C@H]2n1ccc(=O)[nH]c1=O` [Compound 5], the CC50 in “in vitro” stood at 150 µM. Further, in data set [1], the “SI (selectivity index, ratio of CC50 to IC50)” value worked out at 1.56. The IC50 in data set [1] (setting [5]) is 96 ± 7.64 µM; in data set [1] (setting [6]), 97.7 µM.

In turn, `CC1(C)O[C@@H]2[C@H](O1)[C@@H](CO[C@@H]1C[C@@H](OCc3ccccc3)[C@H](OCc3ccccc3)[C@@H](COCc3ccccc3)O1)O[C@H]2n1ccc(=O)n(C(=O)c2ccccc2)c1=O` [Compound 4] yielded a CC50 in the data set “in vitro” of 480 µM. Also, in data set [1], the “SI (selectivity index, ratio of CC50 to IC50)” value was 4.85. Besides, the IC50 in data set [1] (setting [5]) is 99 ± 5.23 µM; in data set [1] (setting [6]), 100 µM. Moreover, the “Reduction” value in data set [2] is “significantly reduced the CPE”.

In the case of `CC(=O)O[C@H]1[C@H](C)O[C@H](OC[C@H]2O[C@@H](n3ccc(=O)n(C(=O)c4ccccc4)c3=O)[C@@H]3OC(C)(C)O[C@@H]32)C[C@@H]1O[Si](C)(C)C(C)(C)C` [Compound 2], in “in vitro”, the CC50 amounted to 432 µM. For the same compound, in data set [1], the “Average size and plaque number” value is “markedly reduced in a dose-dependent manner”; the “SI (selectivity index, ratio of CC50 to IC50)” value was found to be 5.27. Further, the IC50 in data set [1] (setting [5]) amounted to 82 ± 6.81 µM. In addition, the IC50 in data set [1] (setting [6]) was 81.3 µM. Also, the “Reduction” value in data set [2] was “significantly reduced the CPE”. In addition, the “Inhibition of virus propagation depending on time of addition” value in data set [3] is “inhibited the propagation of influenza virus only when it is added to the cells after viral infection”. In data set [4], the “Mature form of HA protein” value is on record as “not detected” and the “Yield of HA protein in infected cells” value is recorded as “reduced the formation of HA glycoprotein in a dose-dependent manner; also recorded: reduced by compound 2 in a dose-dependent manner; also recorded: dose-dependent decrease of HA glycoprotein production”.

In the case of `CC1(C)O[C@@H]2[C@H](O1)[C@@H](CO[C@@H]1C[C@@H](OCc3ccccc3)[C@H](OCc3ccccc3)[C@@H](CO[Si](C)(C)C(C)(C)C)O1)O[C@H]2n1ccc(=O)n(C(=O)c2ccccc2)c1=O` [IW3, reference compound], the IC50 was 72 µM in the data set on influenza virus and 72 ± 5.2 µM in data set [1] (setting [5]). Also, the CC50 in “in vitro” was 640 µM. For the same compound, in data set [1], the “SI (selectivity index, ratio of CC50 to IC50)” value is 8.89.

`CCC(CC)O[C@@H]1C=C(C(=O)O)C[C@H](N)[C@H]1NC(C)=O` [Oseltamivir carboxylate, reference compound] showed a CC50 in the data set “in vitro” above 100 µM. Also, in data set [1] (setting [5]), the IC50 was around 0.15 µM.

For `CC(=O)OC[C@H]1OC(OC[C@H]2O[C@@H](n3ccc(=O)[nH]c3=O)[C@@H]3OC(C)(C)O[C@@H]32)C[C@@H](OC(C)=O)[C@@H]1OC(C)=O` (some centres unmarked) [Compound 6], the CC50 in “in vitro” worked out at 620 µM. Also, the “SI (selectivity index, ratio of CC50 to IC50)” value in data set [1] is on record as 1.08. Besides, the IC50 is 575 ± 17.2 µM in data set [1] (setting [5]) and 575 µM in data set [1] (setting [6]).

Take `CC1(C)O[C@@H]2[C@H](O1)[C@@H](CO[C@@H]1C[C@@H](O)[C@H](O)[C@@H](CO)O1)O[C@H]2n1ccc(=O)[nH]c1=O` [Compound 7]: the CC50 in “in vitro” worked out at 828 µM. In addition, in data set [1], the “SI (selectivity index, ratio of CC50 to IC50)” value is 1.15. Moreover, the IC50 in data set [1] (setting [5]) is 721 ± 23.2 µM; in data set [1] (setting [6]), 724 µM. Further, the “Cytotoxicity (in words)” value with MDCK cells was “low”.
